Experiment: gradient 5% acetonitrile 3 min, to 50% in 2 min, to 85% in 15 min, held 3 min, 100 µL/min
Details: column: Zorbax Extend-C18 2.1 x 50 mm; eluents: water / acetonitrile, 0.1% formic acid
Procedure, shortened: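 The system's dead and dwell volumes were 40 μL and 900 μL, with a Zorbax Extend-C18 column (2.1 × 50 mm, 1.8 μm) run at 100 μL/min in water and acetonitrile containing 0.1% formic acid each. Pure standards were analyzed in mixtures of ~100 molecules by HPLC–quadrupole time-of-flight mass spectrometry in positive and negative ionization mode. Retention time was assigned from computationally picked, manually inspected adduct peaks.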

RP-LC retention time | Compound
837 s | CCC(=O)c1cn(CC(=O)NCc2cc3c(cc2OC)OCCCO3)c2ccccc12
592 s | Cc1ccnc(NC(=O)C2CC(=O)N(c3n[nH]c4ccccc34)C2)c1 (stereo not drawn)
639 s | COC[C@@H]1CN(S(=O)(=O)c2cccc(F)c2)C[C@H]1c1ccccn1
1240 s | Cc1sc(-c2cc(C(F)(F)F)on2)cc1S(=O)(=O)Nc1cccc(Cl)c1C
753 s | O=C(Nc1ccc2c(c1)OCO2)C1CCN(C(=O)c2cccc(F)c2)CC1
716 s | O=C(Cn1nc2c3ccc(Cl)cc3ncn2c1=O)NCc1ccccc1
939 s | Cc1noc(C)c1-c1ccc(S(=O)(=O)Nc2ccc(F)c(F)c2)cc1
650 s | Brc1cccc(-c2noc(Cn3ccnc3)n2)c1
836 s | CC(C)c1ccc(N2C(=O)CN(S(C)(=O)=O)CC2(C)C(=O)NCc2ccc(F)cc2)cc1 (stereo not drawn)
1030 s | COc1ccc2c(c1)C=C(C(=O)N(C)c1ccccc1)C=CO2
682 s | CN(C(=O)CC(=O)Nc1ccc2nc3n(c(=O)c2c1)CCCCC3)c1ccccc1F
795 s | CN1c2cc(Cl)ccc2C(=O)NC12CCN(C(=O)NCc1ccccc1)CC2
1020 s | COc1ccc(-c2noc(C3CCCN3C(=O)Nc3cccc(Cl)c3)n2)cc1 (stereo not drawn)
921 s | O=C(CCn1nnc2cc(-c3noc(Cc4ccc(Cl)cc4)n3)ccc21)N1CCCC1
765 s | O=C(NCc1cccs1)c1ccc(-n2nc(N3CCCC3)ccc2=O)cc1
910 s | CC1(C)CC(=O)c2cn(-c3ccccc3)c(=O)c(C(=O)N3CCc4ccccc43)c2C1
819 s | CCc1cccc(NS(=O)(=O)c2cc(-c3[nH]ncc3C(=O)N3CCCCC3)oc2C)c1
649 s | OCCNCc1ccc(-c2cccc(C(F)(F)F)c2)o1
830 s | CC(C)CN(C[C@@H](O)[C@H](Cc1ccccc1)NC(=O)O[C@H]1CO[C@H]2OCC[C@H]21)S(=O)(=O)c1ccc(N)cc1
610 s | O=C(CN1CCN(Cc2ccccc2F)C1=O)NC1CCN(Cc2ccccc2)CC1
887 s | Cc1cc(-c2nnc(C3CCC3)o2)c(C)n1CC(=O)Nc1ccccc1F

RP-LC retention time | Compound
870 s | O=C(Nc1ccc(-c2nc3ccccc3o2)cc1)Nc1c(F)cccc1F
748 s | COc1ccc(-c2nnc(-c3ccc(C)c(S(=O)(=O)NC(C)C(=O)O)c3)o2)cc1OC (stereo not drawn)
1090 s | O=S(=O)(c1ccc(-c2noc(-c3cccc(F)c3)n2)cc1)N1CCOCC1
870 s | CC(C)C(=O)N1N=C(c2ccc(NS(=O)(=O)c3ccccc3)cc2)CC1c1ccco1 (stereo not drawn)
1170 s | COc1cccc(-c2nc(C3CCN(S(=O)(=O)c4ccc(Cl)cc4)CC3)no2)c1
742 s | O=C(Nc1ccccc1)N1CCC(n2cnc3ccc(F)cc3c2=O)CC1
981 s | CCOc1ccc(-n2ccnc(NC(=O)Nc3ccccc3)c2=O)cc1
781 s | O=C(O)CCNS(=O)(=O)c1ccc(Cl)c(-c2nnc(-c3ccccc3)o2)c1
930 s | COCc1cc2nn(CC(=O)Nc3c(C)cccc3C)c(=O)n2c(-c2ccccc2)n1
1300 s | Cc1ccc(-c2noc(-c3ccccc3S(=O)(=O)NC3CCCC3)n2)cc1
584 s | O=C(NCC1CCN(Cc2ccco2)CC1)C(=O)Nc1ccc(F)c(Cl)c1
815 s | Cc1ccc(C)c(Nc2c(-c3ccccc3)nc3ncccn23)c1
754 s | CCCNC(=O)c1ccc(-c2csc(C)n2)cc1
763 s | CCN1c2ccc(F)cc2C(=O)NC12CCN(C(=O)c1ccccc1)CC2
948 s | O=C(Cn1cnc2c(sc3nc(-c4ccccc4)ccc32)c1=O)Nc1ccc2c(c1)OCCO2
1160 s | O=C(NCc1ccc(F)cc1)c1nnc(-c2ccc(S(=O)(=O)N3CCCCC3)cc2)o1
794 s | Cc1nc(OCC(=O)Nc2ccc(Br)cc2)c2ccccc2n1
926 s | CC(C)Cn1cc(S(=O)(=O)Nc2ccccc2F)c2cccnc21
768 s | CCOc1ccc(C(=O)N2CCC3(CC2)NC(=O)c2ccc(Cl)cc2N3)cc1
769 s | Cc1ccc(Cn2c(=O)n(CCNC(=O)C(C)C)c3ncccc32)cc1

More lines, now with the values behind:

Compound | RP-LC retention time
CN(C)C[C@@H]1CN(C2CCOCC2)C[C@H]1NS(=O)(=O)c1ccc(C#N)cc1 | 524 s
O=C(CN1C(=O)C2CCCCN2c2ccc(C(=O)N3CCOCC3)cc21)Nc1ccc(Cl)cc1 (stereo not drawn) | 832 s
CCOC(=O)C1CCN(C(=O)c2sc3ncn(CC(=O)N4CCCCC4C)c(=O)c3c2C)CC1 (stereo not drawn) | 776 s
COc1ccc(C2Cn3nnc(-c4nc(-c5ccc(OC(C)C)cc5)no4)c3CO2)cc1 (stereo not drawn) | 1250 s
COc1cc2c(c3oc4cccc(O)c4c(=O)c13)C1C=CO[C@@H]1O2 (stereo partly drawn) | 989 s
CCNc1ncnc2sc3c(c12)CCN(C(=O)c1ccncc1)C3 | 591 s
Cc1cc(C2CCCN2C(=O)Nc2ccc(C)c(Cl)c2)no1 (stereo not drawn) | 906 s
O=C(c1ccc(OCC2CCN(C(=O)c3ccsc3)CC2)cc1)N1CCOCC1 | 678 s
CN1C(=O)CC[C@]2(C(=O)NCc3cccc(C(F)(F)F)c3)CCCC[C@@H]12 | 744 s
COc1ccc(C2Cn3cnc(C(=O)N4CCC(C(=O)NCc5ccco5)CC4)c3CO2)cc1 (stereo not drawn) | 698 s
CCN(CC)CCNC(=O)C(C)n1c2ccccc2c2cnn(C)c(=O)c21 (stereo not drawn) | 609 s
Cc1noc(C)c1CN1CCC(NC(=O)Cc2ccc(F)cc2)CC1 | 582 s
CCC1CCCCN1CCCNC(=O)c1cn(CCOC)c(=O)c2c1c1ccccc1n2C (stereo not drawn) | 631 s
O=C(NCCN1CCCCC1)c1cc2c(s1)CCN(C(=O)c1ccc(Cl)cc1)C2 | 650 s
CSc1nnc(-c2nn(C)c3c2CN(C(=O)c2c(F)cccc2Cl)CC3)n1C | 728 s
CCOc1ccc(C2Cn3nnc(-c4nc(C)no4)c3CO2)cc1 (stereo not drawn) | 917 s
CC1CCC(NC(=O)CN2C(=O)CCCc3cc(S(=O)(=O)N4CCCCC4)ccc32)CC1 (stereo not drawn) | 945 s
COc1ccccc1NC(=O)c1csc2c1CCCC2 | 1190 s
CCOc1ccc(Nc2nc(-c3nnn(-c4ccc(OCC)cc4)c3C)ns2)cc1 | 1130 s
CCn1ncc2ccc(C(N)=O)cc21 | 599 s
O=C(c1n[nH]c2ccccc12)N1CCC(c2noc(C3CC3)n2)C1 (stereo not drawn) | 720 s
CCOC(=O)c1noc2ncnc(N3CCN(c4ccccc4OC)CC3)c12 | 970 s
Cc1cc(C)c2c(N3CCCC3)nc(C(=O)Nc3ccc4c(c3)OCCO4)nc2n1 | 583 s
Cc1nn(-c2ccc(F)cc2)c2nc(N3CCCC(C(=O)NCCc4ccco4)C3)sc12 (stereo not drawn) | 1080 s

Compound | RP-LC retention time
CCc1ccc(C2=C(C)C(N3CCCN(C(=O)CCC(C)C)CC3)=NS2(=O)=O)cc1 | 974 s
Cc1ccc(NC(=O)N2CCC(CC(=O)N3CCCCC3)CC2)cc1Cl | 861 s
N#CC1(C(=O)NCCc2cccs2)CC1 | 708 s
COc1cc(NC(=O)CN2C(=O)C3CCCCN3c3ccc(C(=O)N(C)C)cc32)cc(OC)c1OC (stereo not drawn) | 734 s
CCOC(=O)N1CCN(C(=O)Nc2cccc(Cl)c2)CC1 | 732 s
CC(=O)N1CCC(C2CCN(C(=O)CN3CCCC3=O)C2)CC1 (stereo not drawn) | 580 s
O=C1COc2cc(S(=O)(=O)N3CCC(C(=O)NC4CCCCC4)CC3)c(Cl)cc2N1 | 772 s
CCc1ccc2[nH]c3c(c(=O)c2c1)CN(CC(=O)NCc1cccc(OC)c1)CC3 | 629 s
Cc1ccc(C(O)CN2CCN(c3ccccn3)CC2)cc1 (stereo not drawn) | 550 s
CN(C)C(=O)CSc1nnc(-c2ccc3c(c2)OCCCO3)n1C1CC1 | 676 s
CCCS(=O)(=O)N1CCC(Cc2ccc(COc3ccncc3)cc2)CC1 | 701 s
CSc1ccc(CNC(=O)C2CCCN(c3nn4c(=O)c5c(nc4s3)CCCC5)C2)cc1 (stereo not drawn) | 792 s
O=C(NC1CCCCC1)C1CCN(C(=O)c2cccn2-c2cccnc2)CC1 | 673 s
Cc1cc(C)cc(NC(=O)C2CCCN2S(=O)(=O)c2cc3c(cc2C)NC(=O)CO3)c1 (stereo not drawn) | 815 s
CCN1C=C(C(=O)OCc2cc(C)ccc2C)C(C)=NS1(=O)=O | 1060 s
Cc1noc(C)c1CC(=O)N1CC(c2noc(C3CCCN3C)n2)C1 (stereo not drawn) | 594 s
COc1cc(C2C(C(=O)N3CCCC3)CCC(=O)N2c2ccc3c(c2)OCO3)cc(OC)c1OC (stereo not drawn) | 665 s
CC1(C(=O)NC2CCCCCCC2)CN(S(C)(=O)=O)CC(=O)N1Cc1cccc(F)c1 (stereo not drawn) | 956 s
NC(=O)c1c(NC(=O)CSc2ncnc3sc4c(c23)CCC4)sc2c1CCC2 | 1100 s
COc1ccc(-c2noc(C3CC(=O)N(c4ccc(OC)c(OC)c4)C3)n2)c(OC)c1 (stereo not drawn) | 786 s
CCOC(=O)c1cc(S(=O)(=O)N2CCCC2C(=O)NC(C)C)cn1C (stereo not drawn) | 746 s
Cc1sc(-c2noc(C3CCC3)n2)cc1S(=O)(=O)N1CCC(C(=O)NCc2ccco2)CC1 | 1010 s
O=C(Nc1cccc(C(F)(F)F)c1)NC1CCN(c2ccc(F)cc2)C1=O (stereo not drawn) | 923 s

— the METLIN SMRT retention time set (Domingo-Almenara et al. 2019)
